Patent publication US10912752B2, “Methods and compositions for reducing ocular discomfort” (Brien Holden Vision Institute Limited, priority 2012, dated 2021)

Legend:
HCLE cells [1] = test: MTT cell viability, titration of osmolyte concentration in isotonic medium; format: cell-based, human
Description: An immortalized human corneal limbal epithelial (HCLE) cell line (a kind gift from Ilene Gipson, Schepens Eye Research Institute, Boston, Mass.) was used in the study. HCLE cells were cultured as previously described (Garrett et al. Invest Ophthalmol Vis Sci 2008; 49:4844-4849). Briefly, the cells were maintained on plastic at 2×10^4/cm^2 in a keratinocyte serum-free medium (K-SFM; Invitrogen-Gibco, Grand Island, N.Y.), supplemented with 25 μg/mL bovine pituitary extract, 0.2 ng/mL epidermal growth factor (EGF; Invitrogen, Mount Waverley, VIC, Australia), and 0.4 mM CaCl2 and were grown at 37° C. in a 5% carbon dioxide atmosphere. To enhance nutrient composition, the cultures were switched at approximately 50% confluence to a 1:1 mixture of K-SFM and low calcium DMEM/F12 (Invitrogen), to achieve confluence. All the experiments involving the culture of HCLE cells were performed at 37° C. in a 5% carbon dioxide atmosphere unless otherwise indicated.
To determine the optimal concentration of betaine for use in the osmoprotective studies, betaine (Sigma-Aldrich, St. Louis, Mo.; 1.0-200 mM) was prepared in culture medium. […] Following treatment with betaine, cell viability was assessed using the 3-[4,5-dimethylthiazol-2-yl]-2,5-diphenyltetr azoliumbromide (MTT) cell survival assays (Promega, Madison, Wis.).

HCLE cells [2] = test: Flow cytometry Annexin V/PI apoptosis/necrosis under hyperosmotic stress; format: cell-based, human; details: 16 h; for percentage of healthy cells (Annexin V and PI negative): 500 mOsm + 10 mM vs 500 mOsm; for total percentage of apoptotic and necrotic (damaged) cells: 500 mOsm + 10 mM, flow cytometry
Description: Cell volume and Live/Dead staining via flow cytometry were performed using the Attune® Acoustic focusing Cytometer (Life Technologies™ Applied Biosystems). Annexin V and PI kit (Invitrogen™) was used to analyse the non-apoptotic, and the early and late apoptotic cells. Staining was performed as per manufacturer's instructions. Analysis of Annexin staining was conducted using the blue/violet laser with excitation/emission spectra of 480/500 nm (20 mW) and the PI staining analysis was conducted using blue/red laser with an excitation/emission spectra of 490/635 nm.
500 mOsm and exposure time (16 h) to be the most informative under which to observe hyperosmolality induced cellular responses of HCLE (results not shown). Thus, in the present study, a hyperosmotic medium of 500 mOsm and exposure time of 16 h were used throughout. Hyperosmolar media were prepared by the addition of NaCl to the medium. Medium osmolarity was measured using a Vapro 5520 vapour pressure osmometer (Wescor, Logan, Utah). Subconfluent cells were exposed to hyperosmolar media in the presence or absence of betaine (5 or 10 mM). Mitochondrial and proliferation activities for cell viability; TNF-α production; caspase activity and Annexin V/PI staining for apoptosis; and cellular shrinkage were monitored as detailed below.
It was observed that an osmolarity of 450 mOsM and 500 mOsM and exposure time of 16 hours was the most optimal for studying hyperosmolarity induced cellular responses of HCLE (results not shown). Therefore, a hyperosmolar medium of 450 mOsM and 500 mOsM and an exposure time of 16 hours were used throughout the study. The hyperosmolarity of the medium was achieved by addition of an appropriate amount of NaCl to it, and further measuring using Vapro 5520 vapor pressure osmometer (Wescor, Logan, Utah). Cells, having reached 70%-80% confluence were exposed to hyperosmolar media in the presence or absence of 10 mM L-Carnitine. Cellular shrinkage in relation to hyperosmotic stress, Annexin V/PI staining for apoptosis, Caspase activities and TNF-α production were analysed.
Cultured human corneal limbal epithelial (HCLE) cells were exposed to culture medium with or without carnitine (10 mM) at 300 mOsm (isotonic), 450 mOsm (moderate), and 500 mOsm (hyperosmotic) for 16 h. Induction of apoptosis was detected by quantification of the proteolytic activity of caspase-8, caspase-9, or caspase-3/7 using caspase activity assays, and production of tumor necrosis factor (TNF)-α, a known apoptosis inducer, using ELISA. Annexin V and Propidium iodine (PI) staining was performed to detect the percentage of apoptotic cells using confocal microscopy and flow cytometry.

[3] = test system: ICES-induced murine dry eye model; test: Corneal fluorescein staining in ICES-induced murine dry eye model; format: in vivo, C57BL/6 mice; details: for corneal staining from Day 21 to Day 35: Schedule 2, within-group change
Source text: A total of 110 female C57BL/6 mice (age 4-6 weeks, from the Animal Breeding Unit of Wenzhou Medical College) were used in the study. These mice were carefully selected out of 350 mice by clinical examination using slit-lamp microscopy and corneal staining. Only those healthy mice with no corneal infections, infiltration or leukom, and with total scores of corneal fluorescein staining of less than 10, were selected for the study.
This study used the ICES-induced murine dry eye model in which relative humidity, airflow and temperature were maintained at 15.7±3.2% (mean±SD), 2.1±0.2 m/s and 21-24° C., respectively, and mice began developing dry eye conditions similar to those in humans from Day 21 post-housing (Chen et al A Murine Model of Dry Eye Induced by an Intelligently Controlled Environmental System. Investigative Ophthalmology & Visual Science, 2008: 49(4):1386-1391). The relative humidity and temperature of ICES systems were monitored daily.
Mice in different groups were labelled using ear marks. The mice were housed in cages (maximum of five animals per cage) and two independent cages were placed in each ICES system. Two schedules were used for topical administration of test compounds, Betaine (0.234% (10 mM) in sterile PBS) or Carnitine (0.25% (10 mM) in sterile PBS), or sterile PBS as a control. Mice without any topical treatment were used as another control. In the first schedule, compounds were administered to mice at the beginning of their housing in ICES (Schedule 1) to study the effect of these compounds on the development of dry eye. In the second schedule compound administration began after mice had been housed in ICES for 21 days (Schedule 2), by which time the dry eye condition had been developed (Chen et al. IOVS 2008), to study the effect of these compounds on treatment of dry eye. Compounds were administered topically to both eyes of the animal. The compound solution made in PBS was topically administered four times daily for up to a total of 35 days for Schedule 1, or 14 days for Schedule 2, during which the mice remained housed in ICES.
Four (4×) mice in each cage received individual treatment: A, B, C, D where A=Betaine (10 mM in PBS); B=Carnitine (10 mM in PBS); C=PBS only; D=No treatment.
The cornea was examined using slit-lamp microscopy with cobalt blue light immediately after fluorescein instillation. The stained area was assessed and graded using the 2007 Dry Eye Work Shop (DEW) recommended grading system. The mouse corneas were rated ranging from 0 to 4 with the cornea surface divided into five regions (0 dot, Grade 0; 1-5 dots, Grade 1; 6-15 dots, Grade 2; 16-30 dots, Grade 3; and […], Grade 4). The total score from the five regions was recorded.

[4] = Schedule 1, Day 14, 10 mM in PBS topically four times daily
[5] = Schedule 1, Day 21, 10 mM in PBS topically four times daily

Row | Structure (SMILES) | betaine concentration not toxic to the cells (HCLE cells [1]; titration 0-200 mM, 300 mOsm medium, 16 h, MTT) | percentage of healthy cells (Annexin V and PI negative) (HCLE cells [2]) | total percentage of apoptotic and necrotic (damaged) cells (HCLE cells [2]) [%] | corneal staining vs control C (PBS only) or D (no treatment) [3, 4] | corneal staining vs control C (PBS only) or D (no treatment) [3, 5] | corneal staining from Day 21 to Day 35 [3] | concentration optimal to carry out osmoprotective studies (cell viability analysis) (HCLE cells [1]; toxicity of various concentrations) [µM] | increase in the percentage of un-damaged (non-apoptotic/non-necrotic) cells (HCLE cells [2]; 10 mM, 500 mOsm, vs hyperosmotically stressed HCLE) [%] | corneal staining vs control C or D ([3]; Schedule 1, Day 35, 10 mM in PBS topically four times daily) | corneal staining vs controls C or D ([3]; Schedule 2 (treatment from Day 22 after dry eye developed), Day 35)
1 | C[N+](C)(C)CC(=O)[O-] [betaine, trimethylglycine] | up to 40 mM | considerable increase | 15.70 | statistically significant reduction | statistically significant reduction | statistically significant reduction | – | – | – | –
2 | C[N+](C)(C)CC(O)CC(=O)[O-] (stereo not drawn) [carnitine, 3-hydroxy-4-(trimethylazaniumyl)butanoate] | – | increased | ~19.0 | statistically significant reduction | statistically significant reduction | statistically significant reduction | 10000 | 63 | reduced corneal staining | statistically significant reduction
